# Test results from patent publication US6303630A, “Diarylsulfone non-nucleoside reverse transcriptase inhibitors of human immunodeficiency virus” (University of the Sciences in Philadelphia, priority 2000, dated 2001).
# Read-outs that look alike come from different tables or passages of the source.
# Legend:
# HIV-1 = experiment: NCI in vitro anti-HIV drug screen: XTT-formazan assay, protection of T4 lymphocytes (CEM) from HIV-1 cytopathic effects; assay type: cell-based, human immunodeficiency virus (HIV-1); details: for EC50 / inhibition at 200 µM / inhibition at 2 µM / inhibition at 0.2 µM / inhibition at 0.634 µM / inhibition at 20 µM / inhibition at 63.2 µM / inhibition at 6.33 µM / inhibition at 0.0635 µM / inhibition at 0.02 µM / inhibition at 6.32 µM / inhibition at 0.633 µM / inhibition at 0.0634 µM / inhibition at 0.00635 µM: Human immunodeficiency virus 1, CCRF-CEM; for EC50: 144 h, HIV-1 infected CEM cells, 6 days, XTT, approximate values, read-out: EC50 (50% effective concentration against HIV cytopathic effects); for inhibition at 2 µM / activity at 2 µM: dose 2.00 × 10^-6 Molar; for inhibition at 0.2 µM / activity at 0.2 µM: dose 2.00 × 10^-7 Molar; for TI50 (IC/EC), Therapeutic Index: IC50/EC50; for inhibition at 0.02 µM / activity at 0.02 µM: dose 2.00 × 10^-8 Molar; for inhibition at 6.32 µM / activity at 6.32 µM: dose 6.32 × 10^-6 Molar; for inhibition at 0.633 µM / activity at 0.633 µM: dose 6.33 × 10^-7 Molar; for inhibition at 0.0634 µM: read-out: Percent of Protection, dose 6.34 × 10^-8 Molar; for inhibition at 0.00635 µM: read-out: Percent of Protection, dose 6.35 × 10^-9 Molar; for activity at 0.0634 µM: dose 6.34 × 10^-8 Molar; for activity at 0.00635 µM: dose 6.35 × 10^-9 Molar
# Method: Compounds of the present invention were evaluated for anti-HIV efficacy by the National Cancer Institute's (NCI) In Vitro Anti AIDS Drug Discovery Program.
# (§1) The NCI procedure is fully described, for example, in a bulletin provided by the National Institutes of Health, National Cancer Institute, Bethesda, Md. 20892, all of which is incorporated herein by reference. As related in the NCI bulletin, the procedure is based on O. W. Weislow et al., "New soluble-formazan assay for HIV-1 cytopathic effects: application to high flux screening of synthetic and natural products for AIDS-antiviral activity", J. Natl. Cancer Inst. 81:577-586 (1989), and is used to test for compounds active against human immunodeficiency virus (HIV), and is designed to detect compounds active at any stage of the virus reproductive cycle. As further related in the NCI bulletin, the assay includes killing of T4 lymphocytes by HIV. Amounts of HIV are added to cells, with a minimum of two cycles of virus reproduction found to be necessary to obtain the required cell killing. Compounds that interact with virions, cells, or virus gene-products to interfere with viral activities will protect cells from cytolysis. All were compared with a positive (e.g., AZT-treated) control evaluation at the same time under identical conditions. The procedure is set forth as follows:
# (§2) A candidate compound is first dissolved in a suitable solvent, preferably dimethyl sulfoxide, then diluted 1:100 in cell culture medium before preparing serial half-log10 dilutions. T4 lymphocytes (CEM cell line) are then added and after a brief interval HIV-1 is added, resulting in a 1:200 final dilution of the compound. Uninfected cells with the compound serve as a toxicity control, and infected and uninfected without the compound serve as basic controls. Cultures are then incubated at 37° in a 5% carbon dioxide atmosphere for 6 days. The tetrazolium salt, XTT, is added to all wells, and cultures are incubated to allow formazan color development by viable cells. Individual wells are analyzed spectrophotometrically to quantitate formazan product, and in addition are viewed microscopically for detection of viable cells and confirmation of protective activity. Drug-treated virus-infected cells are compared with drug-treated noninfected cells and with other appropriate controls (untreated infected and untreated noninfected cells, drug-containing wells without cells, etc.) on the same plate. Data are reviewed in comparison with other tests performed at the same time and a determination as to activity is made.
# [1] = test system: T4 lymphocytes (CEM cell line); experiment: Cell growth / toxicity control in uninfected T4 lymphocytes (CEM), XTT-formazan; assay type: cell-based; details: Homo sapiens, CCRF-CEM; for IC50: 144 h, approximate values; for activity at 200 µM: dose 2.00 × 10^-4 Molar; for activity at 200 µM / activity at 20 µM / activity at 2 µM / activity at 0.2 µM / activity at 63.2 µM / activity at 6.33 µM / activity at 0.634 µM / activity at 0.0635 µM / activity at 0.02 µM / activity at 6.32 µM / activity at 0.633 µM / activity at 0.0634 µM / activity at 0.00635 µM: read-out: Percent of Control, Uninfected; for activity at 20 µM: dose 2.00 × 10^-5 Molar; for activity at 2 µM: dose 2.00 × 10^-6 Molar; for activity at 0.2 µM: dose 2.00 × 10^-7 Molar; for activity at 63.2 µM: dose 6.32 × 10^-5 Molar; for activity at 6.33 µM: dose 6.33 × 10^-6 Molar; for activity at 0.634 µM: dose 6.34 × 10^-7 Molar; for activity at 0.0635 µM: dose 6.35 × 10^-8 Molar; for activity at 0.02 µM: dose 2.00 × 10^-8 Molar; for activity at 6.32 µM: dose 6.32 × 10^-6 Molar; for activity at 0.633 µM: dose 6.33 × 10^-7 Molar; for activity at 0.0634 µM: dose 6.34 × 10^-8 Molar; for activity at 0.00635 µM: dose 6.35 × 10^-9 Molar
# Source text: as §1, §2
# [2] = dose 2.00 × 10^-4 Molar, read-out: Percent of Protection
# [3] = read-out: Percent of Protection
# [4] = Human immunodeficiency virus 1, Lymphocyte, read-out: Percent of Control, Infected
# [5] = Human immunodeficiency virus 1, Lymphocyte, dose 6.34 × 10^-7 Molar, read-out: Percent of Control, Infected
# [6] = Human immunodeficiency virus 1, Lymphocyte, dose 6.35 × 10^-8 Molar, read-out: Percent of Control, Infected
# [7] = read-out: IC50 (50% inhibitory concentration for cell growth), uninfected CEM cells, 6 days, XTT
# [8] = dose 2.00 × 10^-5 Molar, read-out: Percent of Protection
# [9] = Human immunodeficiency virus 1, Lymphocyte, dose 2.00 × 10^-5 Molar, read-out: Percent of Control, Infected
Compound,EC50 (HIV-1) [µM],inhibition at 200 µM (HIV-1; [2]) [%],inhibition at 2 µM (HIV-1; [3]) [%],inhibition at 0.2 µM (HIV-1; [3]) [%],activity at 2 µM (HIV-1; [4]) [%],activity at 0.2 µM (HIV-1; [4]) [%],activity at 0.634 µM (HIV-1; [5]) [%],activity at 0.0635 µM (HIV-1; [6]) [%],"TI50 (IC/EC), Therapeutic Index (HIV-1)","IC50 [1, 7] [µM]",activity at 200 µM [1] [%],activity at 20 µM [1] [%],activity at 2 µM [1] [%],activity at 0.2 µM [1] [%],activity at 63.2 µM [1] [%],activity at 6.33 µM [1] [%],activity at 0.634 µM [1] [%],activity at 0.0635 µM [1] [%],inhibition at 20 µM (HIV-1; [8]) [%],activity at 20 µM (HIV-1; [9]) [%],further results
"Cc1ccc(N(C)S(=O)(=O)c2ccccc2[N+](=O)[O-])cc1 [Compound 31, N-(2-nitrophenylsulfonyl)-N,4-dimethylaniline]",12.5,-0.58,9.89,-1.72,14.4,3.37,2.29,1.67,31.0 × 10^0,388,-0.75,84.3,84.1,95.8,24.6,91.1,89.9,92.9,–,–,"inhibition at 0.634 µM (HIV-1; dose 6.34 × 10^-7 Molar, read-out: Percent of Protection): -2.85%; inhibition at 20 µM (HIV-1; read-out: Percent of Protection, dose 2.00 × 10^-5 Molar): 73.6%; inhibition at 63.2 µM (HIV-1; read-out: Percent of Protection, dose 6.32 × 10^-5 Molar): 18.4%; inhibition at 6.33 µM (HIV-1; read-out: Percent of Protection, dose 6.33 × 10^-6 Molar): 22%; inhibition at 0.0635 µM (HIV-1; read-out: Percent of Protection, dose 6.35 × 10^-8 Molar): -3.51%"
"Cc1cc2c(c(S(=O)(=O)c3ccccc3[N+](=O)[O-])c1)NCCC2 [Compound 50, 8-(2-nitrophenyIsulfonyl)6-methyl-1,2,3,4-tetrahydroquinoline]",0.0751,–,107,86.3,106,87.6,–,–,> 2.66 × 10^-2,> 20,–,101,91,87.1,–,–,–,–,97.4,97.6,inhibition at 0.02 µM (HIV-1; [3]): -2.76%; inhibition at 6.32 µM (HIV-1; [3]): 109%; inhibition at 0.633 µM (HIV-1; [3]): 84.2%; inhibition at 0.0634 µM (HIV-1): 44.1%; inhibition at 0.00635 µM (HIV-1): -3.62%; activity at 0.02 µM (HIV-1; [4]): 6.49%; activity at 6.32 µM (HIV-1; [4]): 108%; activity at 0.633 µM (HIV-1; [4]): 85.7%; activity at 0.0634 µM (HIV-1; [4]): 49.1%; activity at 0.00635 µM (HIV-1; [4]): 5.71%; activity at 0.02 µM [1]: 88.4%; activity at 6.32 µM [1]: 91.2%; activity at 0.633 µM [1]: 89.3%; activity at 0.0634 µM [1]: 90.5%; activity at 0.00635 µM [1]: 90.2%
"O=[N+]([O-])c1ccccc1S(=O)(=O)c1cc(Cl)cc2c1NCCC2 [Compound 47, 8-(2-nitrophenylsulfonyl)6chloro-1,2,3,4-tetrahydroquinoline]",0.312,–,88.8,25.3,88.8,25.3,–,–,6.41 × 10^+1,> 20,–,96.1,92.6,87.1,–,–,–,–,86.2,86.2,inhibition at 0.02 µM (HIV-1; [3]): 6%; inhibition at 6.32 µM (HIV-1; [3]): 102%; inhibition at 0.633 µM (HIV-1; [3]): 90%; inhibition at 0.0634 µM (HIV-1): 8.87%; inhibition at 0.00635 µM (HIV-1): 3%; activity at 0.02 µM (HIV-1; [4]): 6%; activity at 6.32 µM (HIV-1; [4]): 102%; activity at 0.633 µM (HIV-1; [4]): 90%; activity at 0.0634 µM (HIV-1; [4]): 8.87%; activity at 0.00635 µM (HIV-1; [4]): 3%; activity at 0.02 µM [1]: 91.2%; activity at 6.32 µM [1]: 104%; activity at 0.633 µM [1]: 86.3%; activity at 0.0634 µM [1]: 92%; activity at 0.00635 µM [1]: 91.2%
"CNc1ccc(Cl)cc1S(=O)(=O)c1ccccc1 [Compound 57, 2-phenylsulfonyl-4-chloro-N-methylaniline]",9.84,22,2.94,0.57,9.73,7.53,5.9,5.77,> 2.03 × 10^-1,–,75.9,87.2,91.5,92,97.2,89.6,86.4,91.9,94,94.4,"inhibition at 63.2 µM (HIV-1; dose 6.32 × 10^-5 Molar, read-out: Percent of Protection): 91.9%; inhibition at 6.33 µM (HIV-1; dose 6.33 × 10^-6 Molar, read-out: Percent of Protection): 22.9%; inhibition at 0.0635 µM (HIV-1; dose 6.35 × 10^-8 Molar, read-out: Percent of Protection): -1.32%; inhibition at 0.634 µM (HIV-1; read-out: Percent of Protection, dose 6.34 × 10^-7 Molar): -1.18%; activity at 200 µM (HIV-1; Human immunodeficiency virus 1, Lymphocyte, dose 2.00 × 10^-4 Molar, read-out: Percent of Control, Infected): 27.5%; activity at 63.2 µM (HIV-1; Human immunodeficiency virus 1, Lymphocyte, dose 6.32 × 10^-5 Molar, read-out: Percent of Control, Infected): 92.5%; activity at 6.33 µM (HIV-1; Human immunodeficiency virus 1, Lymphocyte, dose 6.33 × 10^-6 Molar, read-out: Percent of Control, Infected): 28.3%; IC50 ([1]; uninfected CEM cells, 6 days, XTT, read-out: IC50 (50% inhibitory concentration for cell growth)): > 200 µM"
